# Experimental data published in the supplement of paper PMC10307832.
# What was measured:
# Experiment in all cases: relative viability (nuclei count vs DMSO), 5 days (fraction); higher = more cells survive
# [1] = system: A549
# In short: (§1)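 Relative viability divides the nuclei count in treated wells by that in vehicle wells. Lung cancer cell lines were seeded in 1536-well plates, dosed by pin tool the next day, and fixed and stained after 5 days in one step with final 0.05% Triton X-100, 1% formaldehyde and 1 ug/ml Hoechst. Dosing was a single drug or a fixed anchor-drug dose plus five library-drug doses (not always all listed) in √10 steps, and values are medians of duplicate plates imaged at 4×.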
# [2] = system: COR-L 105
# In short: as §1
# [3] = system: Calu-6
# In short: as §1
# [4] = system: EBC-1
# In short: as §1
# [5] = system: IA-LM
# In short: as §1
# [6] = system: LCLC-103H
# In short: as §1
# [7] = system: LK-2
# In short: as §1
# [8] = system: NCI-H1299
# In short: as §1
# [9] = system: NCI-H1355
# In short: as §1
# [10] = system: NCI-H1666
# In short: as §1
# [11] = system: NCI-H1703
# In short: as §1
# [12] = system: NCI-H520
# In short: as §1
smiles,measurement,setting,value
Nc1ccn([C@@H]2O[C@H](CO)[C@@H](O)[C@@H]2O)c(=O)n1 [Cytarabine] + Cc1nc(NC(=O)N2CCC[C@H]2C(N)=O)sc1-c1ccnc(C(C)(C)C(F)(F)F)c1 [Alpelisib] (partner 2 µM),relative viability,[1]; first compound 0.005 µM,0.596
same,relative viability,[1]; first compound 0.01581 µM,0.479
same,relative viability,[1]; first compound 0.05 µM,0.399
same,relative viability,[1]; first compound 0.1581 µM,0.0482
same,relative viability,[1]; first compound 0.5 µM,0.0328
same,relative viability,[2]; first compound 0.005 µM,0.86
same,relative viability,[2]; first compound 0.01581 µM,1.07
same,relative viability,[2]; first compound 0.05 µM,0.675
same,relative viability,[2]; first compound 0.1581 µM,0.444
same,relative viability,[2]; first compound 0.5 µM,0.355
same,relative viability,[3]; first compound 0.005 µM,0.925
same,relative viability,[3]; first compound 0.01581 µM,0.826
same,relative viability,[3]; first compound 0.05 µM,0.79
same,relative viability,[3]; first compound 0.1581 µM,0.483
same,relative viability,[3]; first compound 0.5 µM,0.288
same,relative viability,[4]; first compound 0.005 µM,0.694
same,relative viability,[4]; first compound 0.01581 µM,0.64
same,relative viability,[4]; first compound 0.05 µM,0.676
same,relative viability,[4]; first compound 0.1581 µM,0.439
same,relative viability,[4]; first compound 0.5 µM,0.248
same,relative viability,[5]; first compound 0.005 µM,0.784
same,relative viability,[5]; first compound 0.01581 µM,0.591
same,relative viability,[5]; first compound 0.05 µM,0.701
same,relative viability,[5]; first compound 0.1581 µM,0.259
same,relative viability,[5]; first compound 0.5 µM,0.114
same,relative viability,[6]; first compound 0.005 µM,0.988
same,relative viability,[6]; first compound 0.01581 µM,0.906
same,relative viability,[6]; first compound 0.05 µM,1.02
same,relative viability,[6]; first compound 0.1581 µM,0.967
same,relative viability,[6]; first compound 0.5 µM,0.809
same,relative viability,[7]; first compound 0.005 µM,0.641
same,relative viability,[7]; first compound 0.01581 µM,0.716
same,relative viability,[7]; first compound 0.05 µM,0.381
same,relative viability,[7]; first compound 0.1581 µM,0.276
same,relative viability,[7]; first compound 0.5 µM,0.245
same,relative viability,[8]; first compound 0.005 µM,1.13
same,relative viability,[8]; first compound 0.01581 µM,1.21
same,relative viability,[8]; first compound 0.05 µM,1.13
same,relative viability,[8]; first compound 0.1581 µM,1
same,relative viability,[8]; first compound 0.5 µM,1.06
same,relative viability,[9]; first compound 0.005 µM,0.825
same,relative viability,[9]; first compound 0.01581 µM,0.758
same,relative viability,[9]; first compound 0.05 µM,0.756
same,relative viability,[9]; first compound 0.1581 µM,0.363
same,relative viability,[9]; first compound 0.5 µM,0.264
same,relative viability,[10]; first compound 0.005 µM,0.751
same,relative viability,[10]; first compound 0.01581 µM,0.855
same,relative viability,[10]; first compound 0.05 µM,0.647
same,relative viability,[10]; first compound 0.1581 µM,0.279
same,relative viability,[10]; first compound 0.5 µM,0.35
same,relative viability,[11]; first compound 0.005 µM,0.294
same,relative viability,[11]; first compound 0.01581 µM,0.22
same,relative viability,[11]; first compound 0.05 µM,0.194
same,relative viability,[11]; first compound 0.1581 µM,0.117
same,relative viability,[11]; first compound 0.5 µM,0.143
same,relative viability,[12]; first compound 0.005 µM,0.697
same,relative viability,[12]; first compound 0.01581 µM,0.754
same,relative viability,[12]; first compound 0.05 µM,0.858
same,relative viability,[12]; first compound 0.1581 µM,0.688
same,relative viability,[12]; first compound 0.5 µM,0.447
